Like-named read-outs stand apart in the source and are kept apart here.

The subject of this experiment is HCT116 cells. Description: HCT116 cytotoxic activity assay (Alamar Blue, 72 h). The conditions noted are these: Homo sapiens, HCT-116, 72 h. In general terms: Alamar Blue is a resazurin reagent that responds to reducing activity.
[1] abbreviates: read-out: IC50 in the HCT116 cytotoxic activity assay.

Experimental: Human tumor cells, e.g., HCT116 cells, are seeded in a 96-well plate at 3.0×10^3 cells/well and grown in 100 μl of RPMI complete media (Invitrogen Corporation, Grand Island, N.Y.) containing 10% fetal bovine serum (Hyclone, Logan, Utah) and 10 mM HEPES and at 37° C. for 16 h in an incubator with 5% CO2. To each well, 50 μl of additional growth media containing 20 μM to 60 nM concentrations of compound with 0.2% DMSO is added. Cells are grown for another 72 h at 37° C. 20 μl of Alamar Blue (Trek Diagnostic Systems, Inc., Cleveland, Ohio) reagent is added to each well and incubated for 4 h at 37° C. Plates are read in a SpectraMax Gemini (Molecular Devices, CA) with 544 nm excitation and 590 nm emission wavelength. IC50 values are determined by linear regression analysis of log drug concentration versus percent inhibition.

In general, IC50 refers to the concentration needed to halve the response being measured. On to `Nc1nc(Nc2ccc(Oc3ccnc(C(F)(F)F)c3)cc2)cc(-c2ccc3[nH]ccc3c2)n1` [Example 12, 6-(1H-indol-5-yl)-N^4-(4-{[2-(trifluoromethyl)pyridin-4-yl]oxy}phenyl)pyrimidine-2,4-diamine], for which the concentration for half-maximal inhibition (IC50) under setting [1] is not above 0.5 µM.

Consider `Nc1nc(Nc2ccc(Oc3ccnc(C(F)(F)F)c3)cc2)cc(-c2ccc3[nH]cc(CN4CCOCC4)c3c2)n1` [Example 15, 6-[3-(morpholin-4-ylmethyl)-1H-indol-5-yl]-N^4-(4-{[2-(trifluoromethyl)pyridin-4-yl]oxy}phenyl)pyrimidine-2,4-diamine], for which the IC50 is, setting by setting: under setting [1], more than 0.5 µM; (read-out: IC50 in the HCT116 cytotoxic activity assay (upper bound of bin)) not above 5 µM.

Values taken from patent US20090286785A1, “Pyrimidine Derivatives” (Bayer Pharmaceuticals Corporation, priority 2005, published 2009).
